Values of other authors, collected in patent publication US20040058943A1, “Medicinal composition for treatment of chronic cardiac failure” (priority 2001, published 2004).
Where two headings read alike, the source gives them in different places.

Assays:
[1] = system: model rats of heart failure; conditions: 10-week oral administration
[2] = system: model rats of heart failure after myocardial infarction; conditions: for effect on mortality: 9-months long-term oral administration

SMILES	ameliorating the left ventricular end-diastolic pressure (LVEDP) [1]	cardiac hypertrophy [1]	maximum value of the first order differentiation of the left ventricular systolic pressure (LVdP/dtmax) [1]	effect on mortality ([2]; dose 30 mg/kg·day)	effect on mortality ([2]; dose 100 mg/kg·day)	ameliorating the left ventricular end-diastolic pressure (LVEDP) ([2]; long-term oral administration)	maximum value of the first order differentiation of the left ventricular systolic pressure (LVdP/dtmax) ([2]; long-term oral administration)
COc1cc(OC)nc(O[C@H](C(=O)O)C(OC)(c2ccccc2)c2ccccc2)n1 [darusentan]	effective	ineffective	ineffective	–	–	–	–
COc1ccccc1Oc1c(NS(=O)(=O)c2ccc(C(C)(C)C)cc2)nc(-c2ncccn2)nc1OCCO [bosentan]	–	–	–	ineffective	significantly reduces the mortality	effective	ineffective
